Measured values reported in patent US20040248777A1, “Biomaterials for nerve reconstruction and process for producing the same” (priority 2001, published 2004).

Conditions: laminin fragments in a collagen-filled silicon tube
Text: The present invention is directed to a biomaterial for nerve reconstruction, comprising chitin or chitosan with a surface modified by a laminin fragment having an amino acid sequence, such as YIGSR (tyrosine-isoleucine-glycine-serine-arginine) or IKVAV (isoleucine-lysine-valine-alanine-valine). This material may be used in the form of a nerve-bridging chitosan tube with a wall surface directly modified by the above laminin fragment, a nerve-bridging tube containing therein chitosan fibers with a surface modified by the above laminin fragment, or a nerve-bridging tube filled with chitosan gel modified by the above laminin fragment.

Substance	cell adhesion and neurite growth-promoting effects in vivo
isoleucine-lysine-valine-alanine-valine [IKVAV]	cannot achieve such effects
tyrosine-isoleucine-glycine-serine-arginine [YIGSR]	cannot achieve such effects
